# Numbers after ± are expanded uncertainties.
# Assay: excess molar enthalpy (molar enthalpy of mixing); xn = mol fraction of the nth substance listed
# Details: Liquid
structure (smiles),measurement,setting,value
CO [methanol] + O,excess molar enthalpy,"355.11 K, 5000 kPa, x1 = 0.3",-0.0957 ± 0.00359 kcal/mol
same,excess molar enthalpy,"373.15 K, 5000 kPa, x1 = 0.1",-0.0386 ± 0.00194 kcal/mol
same,excess molar enthalpy,"373.15 K, 5000 kPa, x1 = 0.2",-0.053 ± 0.00239 kcal/mol
same,excess molar enthalpy,"373.15 K, 5000 kPa, x1 = 0.3",-0.0554 ± 0.00239 kcal/mol
same,excess molar enthalpy,"373.15 K, 5000 kPa, x1 = 0.4",-0.0527 ± 0.00237 kcal/mol
same,excess molar enthalpy,"373.15 K, 5000 kPa, x1 = 0.5",-0.0495 ± 0.00227 kcal/mol
same,excess molar enthalpy,"373.15 K, 5000 kPa, x1 = 0.6",-0.0465 ± 0.00217 kcal/mol
same,excess molar enthalpy,"373.15 K, 5000 kPa, x1 = 0.7",-0.0425 ± 0.00206 kcal/mol
same,excess molar enthalpy,"373.15 K, 5000 kPa, x1 = 0.8",-0.0361 ± 0.00186 kcal/mol
same,excess molar enthalpy,"373.15 K, 5000 kPa, x1 = 0.9",-0.0233 ± 0.00155 kcal/mol
same,excess molar enthalpy,"373.82 K, 5000 kPa, x1 = 0.9",-0.0227 ± 0.00153 kcal/mol
same,excess molar enthalpy,"374.46 K, 5000 kPa, x1 = 0.8",-0.0342 ± 0.00179 kcal/mol
same,excess molar enthalpy,"374.83 K, 5000 kPa, x1 = 0.7",-0.0394 ± 0.00196 kcal/mol
same,excess molar enthalpy,"375.03 K, 5000 kPa, x1 = 0.1",-0.0377 ± 0.00191 kcal/mol
same,excess molar enthalpy,"375.03 K, 5000 kPa, x1 = 0.2",-0.0491 ± 0.00227 kcal/mol
same,excess molar enthalpy,"375.03 K, 5000 kPa, x1 = 0.3",-0.0508 ± 0.00232 kcal/mol
same,excess molar enthalpy,"375.03 K, 5000 kPa, x1 = 0.4",-0.0479 ± 0.00222 kcal/mol
same,excess molar enthalpy,"375.03 K, 5000 kPa, x1 = 0.5",-0.045 ± 0.00213 kcal/mol
same,excess molar enthalpy,"375.03 K, 5000 kPa, x1 = 0.6",-0.0422 ± 0.00206 kcal/mol
same,excess molar enthalpy,"375.03 K, 5000 kPa, x1 = 0.7",-0.0388 ± 0.00194 kcal/mol
same,excess molar enthalpy,"375.03 K, 5000 kPa, x1 = 0.8",-0.0333 ± 0.00177 kcal/mol
same,excess molar enthalpy,"375.03 K, 5000 kPa, x1 = 0.9",-0.0214 ± 0.00143 kcal/mol
same,excess molar enthalpy,"375.05 K, 5000 kPa, x1 = 0.1",-0.0364 ± 0.00186 kcal/mol
same,excess molar enthalpy,"375.09 K, 5000 kPa, x1 = 0.6",-0.0424 ± 0.00206 kcal/mol
same,excess molar enthalpy,"375.26 K, 5000 kPa, x1 = 0.5",-0.0447 ± 0.00213 kcal/mol
same,excess molar enthalpy,"375.35 K, 5000 kPa, x1 = 0.9",-0.0212 ± 0.00141 kcal/mol
same,excess molar enthalpy,"375.45 K, 5000 kPa, x1 = 0.4",-0.0473 ± 0.0022 kcal/mol
same,excess molar enthalpy,"375.66 K, 5000 kPa, x1 = 0.3",-0.0498 ± 0.00229 kcal/mol
same,excess molar enthalpy,"375.68 K, 5000 kPa, x1 = 0.2",-0.0484 ± 0.00225 kcal/mol
same,excess molar enthalpy,"376.12 K, 5000 kPa, x1 = 0.8",-0.0318 ± 0.00172 kcal/mol
same,excess molar enthalpy,"376.69 K, 5000 kPa, x1 = 0.7",-0.0358 ± 0.00184 kcal/mol
same,excess molar enthalpy,"376.94 K, 5000 kPa, x1 = 0.6",-0.0382 ± 0.00194 kcal/mol
same,excess molar enthalpy,"376.98 K, 5000 kPa, x1 = 0.1",-0.034 ± 0.00179 kcal/mol
same,excess molar enthalpy,"377.07 K, 5000 kPa, x1 = 0.5",-0.0403 ± 0.00198 kcal/mol
same,excess molar enthalpy,"377.26 K, 5000 kPa, x1 = 0.4",-0.0427 ± 0.00206 kcal/mol
same,excess molar enthalpy,"377.41 K, 5000 kPa, x1 = 0.3",-0.0455 ± 0.00215 kcal/mol
same,excess molar enthalpy,"377.47 K, 5000 kPa, x1 = 0.2",-0.0447 ± 0.00213 kcal/mol
same,excess molar enthalpy,"420.87 K, 10000 kPa, x1 = 0.4",0.0499 ± 0.00229 kcal/mol
same,excess molar enthalpy,"420.97 K, 2000 kPa, x1 = 0.4",0.0467 ± 0.0022 kcal/mol
same,excess molar enthalpy,"420.98 K, 5000 kPa, x1 = 0.4",0.0483 ± 0.00225 kcal/mol
same,excess molar enthalpy,"420.98 K, 5000 kPa, x1 = 0.5",0.051 ± 0.00232 kcal/mol
same,excess molar enthalpy,"421.12 K, 10000 kPa, x1 = 0.6",0.0491 ± 0.00227 kcal/mol
same,excess molar enthalpy,"421.18 K, 5000 kPa, x1 = 0.6",0.048 ± 0.00222 kcal/mol
same,excess molar enthalpy,"421.19 K, 2000 kPa, x1 = 0.6",0.0457 ± 0.00215 kcal/mol
same,excess molar enthalpy,"421.39 K, 5000 kPa, x1 = 0.3",0.0384 ± 0.00194 kcal/mol
same,excess molar enthalpy,"421.51 K, 5000 kPa, x1 = 0.7",0.0404 ± 0.00198 kcal/mol
same,excess molar enthalpy,"421.69 K, 10000 kPa, x1 = 0.2",0.0282 ± 0.0016 kcal/mol
same,excess molar enthalpy,"421.8 K, 2000 kPa, x1 = 0.2",0.0262 ± 0.00155 kcal/mol
same,excess molar enthalpy,"421.84 K, 5000 kPa, x1 = 0.2",0.0269 ± 0.00158 kcal/mol
same,excess molar enthalpy,"421.92 K, 10000 kPa, x1 = 0.8",0.0294 ± 0.00165 kcal/mol
same,excess molar enthalpy,"421.97 K, 2000 kPa, x1 = 0.8",0.0259 ± 0.00155 kcal/mol
same,excess molar enthalpy,"421.98 K, 5000 kPa, x1 = 0.8",0.0283 ± 0.00163 kcal/mol
same,excess molar enthalpy,"422.47 K, 5000 kPa, x1 = 0.9",0.0141 ± 0.0012 kcal/mol
same,excess molar enthalpy,"422.53 K, 5000 kPa, x1 = 0.1",0.0114 ± 0.00115 kcal/mol
same,excess molar enthalpy,"422.8 K, 10000 kPa, x1 = 0.4",0.0539 ± 0.00239 kcal/mol
same,excess molar enthalpy,"422.84 K, 5000 kPa, x1 = 0.4",0.0521 ± 0.00237 kcal/mol
same,excess molar enthalpy,"422.84 K, 5000 kPa, x1 = 0.5",0.0547 ± 0.00239 kcal/mol
same,excess molar enthalpy,"422.86 K, 2000 kPa, x1 = 0.4",0.05 ± 0.00229 kcal/mol
same,excess molar enthalpy,"423.02 K, 10000 kPa, x1 = 0.6",0.0528 ± 0.00237 kcal/mol
same,excess molar enthalpy,"423.08 K, 2000 kPa, x1 = 0.6",0.049 ± 0.00227 kcal/mol
same,excess molar enthalpy,"423.12 K, 5000 kPa, x1 = 0.6",0.0512 ± 0.00232 kcal/mol
same,excess molar enthalpy,"423.14 K, 5000 kPa, x1 = 0.7",0.0432 ± 0.00208 kcal/mol
same,excess molar enthalpy,"423.15 K, 2000 kPa, x1 = 0.2",0.0278 ± 0.0016 kcal/mol
same,excess molar enthalpy,"423.15 K, 2000 kPa, x1 = 0.4",0.0501 ± 0.00229 kcal/mol
same,excess molar enthalpy,"423.15 K, 2000 kPa, x1 = 0.6",0.0484 ± 0.00225 kcal/mol
same,excess molar enthalpy,"423.15 K, 2000 kPa, x1 = 0.8",0.027 ± 0.00158 kcal/mol
same,excess molar enthalpy,"423.15 K, 5000 kPa, x1 = 0.1",0.0118 ± 0.00124 kcal/mol
same,excess molar enthalpy,"423.15 K, 5000 kPa, x1 = 0.2",0.0287 ± 0.00163 kcal/mol
same,excess molar enthalpy,"423.15 K, 5000 kPa, x1 = 0.3",0.0414 ± 0.00203 kcal/mol
same,excess molar enthalpy,"423.15 K, 5000 kPa, x1 = 0.4",0.0522 ± 0.00237 kcal/mol
same,excess molar enthalpy,"423.15 K, 5000 kPa, x1 = 0.5",0.0549 ± 0.00239 kcal/mol
same,excess molar enthalpy,"423.15 K, 5000 kPa, x1 = 0.6",0.0514 ± 0.00234 kcal/mol
same,excess molar enthalpy,"423.15 K, 5000 kPa, x1 = 0.7",0.0421 ± 0.00206 kcal/mol
same,excess molar enthalpy,"423.15 K, 5000 kPa, x1 = 0.8",0.0294 ± 0.00165 kcal/mol
same,excess molar enthalpy,"423.15 K, 5000 kPa, x1 = 0.9",0.0143 ± 0.00127 kcal/mol
same,excess molar enthalpy,"423.15 K, 10000 kPa, x1 = 0.2",0.0302 ± 0.00167 kcal/mol
same,excess molar enthalpy,"423.15 K, 10000 kPa, x1 = 0.4",0.0538 ± 0.00239 kcal/mol
same,excess molar enthalpy,"423.15 K, 10000 kPa, x1 = 0.6",0.0531 ± 0.00239 kcal/mol
same,excess molar enthalpy,"423.15 K, 10000 kPa, x1 = 0.8",0.0302 ± 0.00167 kcal/mol
same,excess molar enthalpy,"423.37 K, 5000 kPa, x1 = 0.3",0.0416 ± 0.00203 kcal/mol
same,excess molar enthalpy,"423.39 K, 5000 kPa, x1 = 0.8",0.0299 ± 0.00167 kcal/mol
same,excess molar enthalpy,"423.49 K, 2000 kPa, x1 = 0.8",0.0275 ± 0.0016 kcal/mol
same,excess molar enthalpy,"423.62 K, 10000 kPa, x1 = 0.8",0.0305 ± 0.0017 kcal/mol
same,excess molar enthalpy,"423.64 K, 10000 kPa, x1 = 0.2",0.0315 ± 0.00172 kcal/mol
same,excess molar enthalpy,"423.68 K, 5000 kPa, x1 = 0.2",0.0299 ± 0.00167 kcal/mol
same,excess molar enthalpy,"423.69 K, 2000 kPa, x1 = 0.2",0.0288 ± 0.00163 kcal/mol
same,excess molar enthalpy,"423.76 K, 5000 kPa, x1 = 0.9",0.0151 ± 0.00124 kcal/mol
same,excess molar enthalpy,"424.45 K, 5000 kPa, x1 = 0.1",0.0132 ± 0.00122 kcal/mol
same,excess molar enthalpy,"424.96 K, 5000 kPa, x1 = 0.1",0.0136 ± 0.00131 kcal/mol
same,excess molar enthalpy,"424.96 K, 5000 kPa, x1 = 0.2",0.0315 ± 0.00172 kcal/mol
same,excess molar enthalpy,"424.96 K, 5000 kPa, x1 = 0.3",0.0442 ± 0.0021 kcal/mol
same,excess molar enthalpy,"424.96 K, 5000 kPa, x1 = 0.4",0.056 ± 0.00239 kcal/mol
same,excess molar enthalpy,"424.96 K, 5000 kPa, x1 = 0.5",0.0586 ± 0.00263 kcal/mol
same,excess molar enthalpy,"424.96 K, 5000 kPa, x1 = 0.6",0.0565 ± 0.00239 kcal/mol
same,excess molar enthalpy,"424.96 K, 5000 kPa, x1 = 0.7",0.0451 ± 0.00213 kcal/mol
same,excess molar enthalpy,"424.96 K, 5000 kPa, x1 = 0.8",0.0318 ± 0.00172 kcal/mol
same,excess molar enthalpy,"424.96 K, 5000 kPa, x1 = 0.9",0.016 ± 0.00131 kcal/mol
same,excess molar enthalpy,"425 K, 2000 kPa, x1 = 0.2",0.0306 ± 0.0017 kcal/mol
same,excess molar enthalpy,"425 K, 2000 kPa, x1 = 0.4",0.054 ± 0.00239 kcal/mol
same,excess molar enthalpy,"425 K, 2000 kPa, x1 = 0.6",0.0545 ± 0.00239 kcal/mol
same,excess molar enthalpy,"425 K, 2000 kPa, x1 = 0.8",0.0286 ± 0.00163 kcal/mol
same,excess molar enthalpy,"425.1 K, 10000 kPa, x1 = 0.2",0.0334 ± 0.00177 kcal/mol
same,excess molar enthalpy,"425.1 K, 10000 kPa, x1 = 0.4",0.0578 ± 0.00263 kcal/mol
same,excess molar enthalpy,"425.1 K, 10000 kPa, x1 = 0.6",0.0584 ± 0.00263 kcal/mol

# From the NIST ThermoML archive (doi:10.1016/j.jct.2005.03.012)
